Source: patent US20190216772A1, “Antioxidant-Containing Food Composition for Use in Enhancing Antiviral Immunity in Companion Animals” (priority 2008, published 2019)

Columns and labels:
Format in all cases: in vivo, dog
IFNAR2 = test: Whole blood gene expression (canine 2 Affymetrix genechip) in dogs fed lipoic acid food for 30 days; conditions: dogs fed control food containing 150 ppm alpha-lipoic acid for 30 days vs control food; whole blood RNA
From the text: (§1) Twenty dogs were fed for 30 days. Ten were fed an AAFCO level control food and 10 other dogs were fed the AAFCO level control food containing 150 ppm alpha-lipoic acid. At the end of the end of the 30 days whole blood samples were collected from each dog in Paxgene tubes.
(§2) Total RNAs were isolated from whole blood samples using the PAXgene RNA isolation kit. All measurements were done with the canine 2 Affymetrix genechips. For statistical analysis, all measurements were normalized with RMA. All analysis was preformed using Partek. An ANOVA t-test was performed for genes that are differentially expressed between the control and test foods. (at least a 20% change in expression with a pvalue<0.05)
(§3) Differentially expressed genes were analyzed with the GeneGo pathway analysis software.

RNASEL = test: as above; conditions: dogs fed control food containing 150 ppm alpha-lipoic acid for 30 days vs control food; whole blood RNA
From the text: as §1, §2, §3

IFNGR2 = test: as above; conditions: dogs fed control food containing 150 ppm alpha-lipoic acid for 30 days vs control food; whole blood RNA
From the text: as §1, §2, §3

EIF2AK2 = test: as above; conditions: dogs fed control food containing 150 ppm alpha-lipoic acid for 30 days vs control food
From the text: as §1, §2, §3

CREBBP = test: as above; conditions: dogs fed control food containing 150 ppm alpha-lipoic acid for 30 days vs control food; whole blood RNA
From the text: as §1, §2, §3

JAK2 = test: as above; conditions: dogs fed control food containing 150 ppm alpha-lipoic acid for 30 days vs control food; whole blood RNA
From the text: as §1, §2, §3

IFR9 = test: as above; conditions: dogs fed control food containing 150 ppm alpha-lipoic acid for 30 days vs control food; whole blood RNA
From the text: as §1, §2, §3

[1] = test system: interferon mediated antiviral response; test: GeneGo pathway analysis of differentially expressed genes in dogs fed lipoic acid; conditions: dogs fed lipoic acid for 30 days; 150 ppm in food
From the text: as §1, §2, §3

O=C(O)CCCCC1CCSS1 (stereo not drawn) [lipoic acid, alpha-lipoic acid]
Fold Up-regulated, IFNAR2 (interferon-alpha/beta receptor beta chain precursor) (IFNAR2): 1.3 fold
Fold Up-regulated, RNASEL (2-5A-dependent ribonuclease) (RNASEL): 1.5 fold
Fold Up-regulated, IFNGR2 (interferon-gamma receptor beta chain precursor) (IFNGR2): 1.2 fold
Fold Up-regulated, EIF2AK2 (Interferon-induced double stranded RNA-activated protein) (EIF2AK2): 1.4 fold
Fold Up-regulated, CREBBP (CREB-binding protein) (CREBBP): 1.2 fold
Fold Up-regulated, JAK2 (Tyrosine protein kinase JAK2) (JAK2): 1.4 fold
Fold Up-regulated, IFR9 (interferon regulatory factor 9) (IFR9): 1.3 fold
interferon mediated antiviral response (pathway analysis of differentially expressed genes) [1]: exhibited an interferon mediated antiviral response
